Data published in patent publication US7655665B2, “Nitromethylene derivatives and their use” (East China University of Science and Technology, priority 2004, dated 2010).

Legend:
Nilaparvata lugens = test: Insecticidal activity against Nilaparvata lugens (planthopper) by spraying; format: in vivo; conditions: 500 ppm; spraying 2 ml; counted after 24 hours
Description: (§1) Test on the insecticidal activity of Compound Nos. 1-227
Planthopper, which belongs to Homoptera and has a piercing-sucking mouthpart, is a common insect for agricultural plant. Nilaparvata lugens was tested by the way of spraying.
Test method: the test compound was exactly formulated into a solution having a certain concentration and clean water was used as a blank control. Each process was repeated for 3 tumblers (3 times). 2 ml of solution was sprayed uniformly to each tumbler by a mini manual sprayer. 10 Nilaparvata lugens were introduced to every sink 6 hours before spraying. Three series of experiments were conducted. The number of killed Nilaparvata lugens was counted after 24 hours to calculate the mortality.

Aphis craccivoral = test: Insecticidal activity against Aphis craccivoral by immersing (dipping aphids on bean sprout); format: in vivo; conditions: 500 ppm; immersing (dipped 5 seconds); counted after 24 hours; 23° C.
Description: as §1
Aphis, which belongs to Homoptera and has a piercing-sucking mouthpart, is a common insect for agricultural plant. Aphis craccivoral was tested by the way of immersing.
Test method: exactly weighed various samples were independently added to N,N-dimethylformamide to form a 10 g/L stock solution. The mixture was diluted with 0.2 mL/L aqueous Triton X-100 solution to a concentration of 500 ug/mL. After stably sucking on bean sprout, the adult aphis without wings together with bean sprout was dipped into 500 ug/mL dilution, taken out after 5 seconds, and the excess dilution was sucked out with bibulous paper and the adult aphis without wings was incubated in clean vessel at a constant temperature of 23° C. Each concentration was repeated for 3 times and the control group contained 0.2 mL/L aqueous Triton X-100 solution. The number of killed aphis was counted after 24 hours to calculate the mortality.

SMILES | mortality (%) (500 ppm) Nilaparvata lugens (Nilaparvata lugens) | mortality (%) (500 ppm) Aphis (Aphis craccivoral)
CCC(C)OC1CCC([N+](=O)[O-])=C2N(CC3CCOC3)CCN21 (centres unmarked) [Compound 59] | 3% | 2%
CC(C)CCOC1CCC([N+](=O)[O-])=C2N(CC3CCOC3)CCN21 (centres unmarked) [Compound 60] | 5% | 3%
CCCC(C)OC1CCC([N+](=O)[O-])=C2N(CC3CCOC3)CCN21 (centres unmarked) [Compound 61] | 89% | 56%
CC(C)(C)COC1CCC([N+](=O)[O-])=C2N(CC3CCOC3)CCN21 (centres unmarked) [Compound 62] | 23% | 12%
O=[N+]([O-])C1=C2N(CC3CCOC3)CCN2C(OC2CCCCC2)CC1 (centres unmarked) [Compound 63] | 6% | 2%
C=CCOC1CCC([N+](=O)[O-])=C2N(CC3CCOC3)CCN21 (centres unmarked) [Compound 64] | 46% | 37%
C#CCOC1CCC([N+](=O)[O-])=C2N(CC3CCOC3)CCN21 (centres unmarked) [Compound 65] | 34% | 47%
COCCOC1CCC([N+](=O)[O-])=C2N(CC3CCOC3)CCN21 (centres unmarked) [Compound 66] | 100% | 100%
CCOCCOC1CCC([N+](=O)[O-])=C2N(CC3CCOC3)CCN21 (centres unmarked) [Compound 67] | 100% | 100%
CC1CC(O)N2CCN(CC3CCOC3)C2=C1[N+](=O)[O-] (centres unmarked) [Compound 68] | 7% | 2%
CC1CC(O)N2CCN(Cc3ccc(Cl)nc3)C2=C1[N+](=O)[O-] (centres unmarked) [Compound 69] | 56% | 45%
CC1CC(O)N2CCN(Cc3cnc(Cl)s3)C2=C1[N+](=O)[O-] (centres unmarked) [Compound 70] | 12% | 33%
O=[N+]([O-])C1=C2N(Cc3ccc(Cl)nc3)CCCN2C(O)CC1 (centres unmarked) [Compound 71] | 0% | 6%
COC1CCC([N+](=O)[O-])=C2N(Cc3ccc(Cl)nc3)CCCN21 (centres unmarked) [Compound 72] | 100% | 35%
CCOC1CCC([N+](=O)[O-])=C2N(Cc3ccc(Cl)nc3)CCCN21 (centres unmarked) [Compound 73] | 56% | 34%
O=[N+]([O-])C1=C2N(Cc3ccc(Cl)nc3)CCCN2C(OCCCl)CC1 (centres unmarked) [Compound 74] | 13% | 12%
O=[N+]([O-])C1=C2N(Cc3ccc(Cl)nc3)CCCN2C(OCC(F)(F)F)CC1 (centres unmarked) [Compound 75] | 100% | 88%
CCCOC1CCC([N+](=O)[O-])=C2N(Cc3ccc(Cl)nc3)CCCN21 (centres unmarked) [Compound 76] | 100% | 100%
CC(C)OC1CCC([N+](=O)[O-])=C2N(Cc3ccc(Cl)nc3)CCCN21 (centres unmarked) [Compound 77] | 78% | 56%
O=[N+]([O-])C1=C2N(Cc3ccc(Cl)nc3)CCCN2C(OC(C(F)(F)F)C(F)(F)F)CC1 (centres unmarked) [Compound 78] | 51% | 68%
CCCCOC1CCC([N+](=O)[O-])=C2N(Cc3ccc(Cl)nc3)CCCN21 (centres unmarked) [Compound 79] | 61% | 52%
CC(C)COC1CCC([N+](=O)[O-])=C2N(Cc3ccc(Cl)nc3)CCCN21 (centres unmarked) [Compound 80] | 34% | 23%
CCC(C)OC1CCC([N+](=O)[O-])=C2N(Cc3ccc(Cl)nc3)CCCN21 (centres unmarked) [Compound 81] | 8% | 12%

SMILES | mortality (%) (500 ppm) Nilaparvata lugens (Nilaparvata lugens) | mortality (%) (500 ppm) Aphis (Aphis craccivoral)
CC(C)(C)OC1CCC([N+](=O)[O-])=C2N(Cc3ccc(Cl)nc3)CCCN21 (centres unmarked) [Compound 82] | 34% | 12%
COCCOC1CCC([N+](=O)[O-])=C2N(Cc3ccc(Cl)nc3)CCCN21 (centres unmarked) [Compound 83] | 26% | 38%
CCOCCOC1CCC([N+](=O)[O-])=C2N(Cc3ccc(Cl)nc3)CCCN21 (centres unmarked) [Compound 84] | 39% | 26%
O=[N+]([O-])C1=C2N(Cc3cnc(Cl)s3)CCCN2C(O)CC1 (centres unmarked) [Compound 85] | 23% | 12%
COC1CCC([N+](=O)[O-])=C2N(Cc3cnc(Cl)s3)CCCN21 (centres unmarked) [Compound 86] | 100% | 100%
CCOC1CCC([N+](=O)[O-])=C2N(Cc3cnc(Cl)s3)CCCN21 (centres unmarked) [Compound 87] | 100% | 100%
O=[N+]([O-])C1=C2N(Cc3cnc(Cl)s3)CCCN2C(OCCCl)CC1 (centres unmarked) [Compound 88] | 34% | 23%
O=[N+]([O-])C1=C2N(Cc3cnc(Cl)s3)CCCN2C(OCC(F)(F)F)CC1 (centres unmarked) [Compound 89] | 100% | 100%
CCCOC1CCC([N+](=O)[O-])=C2N(Cc3cnc(Cl)s3)CCCN21 (centres unmarked) [Compound 90] | 51% | 34%
CC(C)OC1CCC([N+](=O)[O-])=C2N(Cc3cnc(Cl)s3)CCCN21 (centres unmarked) [Compound 91] | 71% | 69%
O=[N+]([O-])C1=C2N(Cc3cnc(Cl)s3)CCCN2C(OC(C(F)(F)F)C(F)(F)F)CC1 (centres unmarked) [Compound 92] | 5% | 6%
CCCCOC1CCC([N+](=O)[O-])=C2N(Cc3cnc(Cl)s3)CCCN21 (centres unmarked) [Compound 93] | 8% | 7%
CC(C)COC1CCC([N+](=O)[O-])=C2N(Cc3cnc(Cl)s3)CCCN21 (centres unmarked) [Compound 94] | 3% | 8%
CCC(C)OC1CCC([N+](=O)[O-])=C2N(Cc3cnc(Cl)s3)CCCN21 (centres unmarked) [Compound 95] | 8% | 4%
CC(C)(C)OC1CCC([N+](=O)[O-])=C2N(Cc3cnc(Cl)s3)CCCN21 (centres unmarked) [Compound 96] | 100% | 80%
COCCOC1CCC([N+](=O)[O-])=C2N(Cc3cnc(Cl)s3)CCCN21 (centres unmarked) [Compound 97] | 100% | 78%
CCOCCOC1CCC([N+](=O)[O-])=C2N(Cc3cnc(Cl)s3)CCCN21 (centres unmarked) [Compound 98] | 7% | 4%
O=[N+]([O-])C1=C2N(CC3CCOC3)CCCN2C(O)CC1 (centres unmarked) [Compound 99] | 7% | 6%
COC1CCC([N+](=O)[O-])=C2N(CC3CCOC3)CCCN21 (centres unmarked) [Compound 100] | 8% | 3%
CCOC1CCC([N+](=O)[O-])=C2N(CC3CCOC3)CCCN21 (centres unmarked) [Compound 101] | 90% | 76%
O=[N+]([O-])C1=C2N(CC3CCOC3)CCCN2C(OCCCl)CC1 (centres unmarked) [Compound 102] | 89% | 0%
O=[N+]([O-])C1=C2N(CC3CCOC3)CCCN2C(OCC(F)(F)F)CC1 (centres unmarked) [Compound 103] | 100% | 6%
CCCOC1CCC([N+](=O)[O-])=C2N(CC3CCOC3)CCCN21 (centres unmarked) [Compound 104] | 24% | 3%
